US8440710B2, “HSL inhibitors useful in the treatment of diabetes” (Hoffmann-La Roche Inc., priority 2009, dated 2013)

Biological target: T1, human HSL (Homo sapiens, UniProt Q05469)
T1 construct: generate a full length human HSL ORF with a 3′-His6 tag; made in house; host or cells: High 5 insect cells (baculovirus, pFast-BAC)
T1 sequence (Q05469 1-1076): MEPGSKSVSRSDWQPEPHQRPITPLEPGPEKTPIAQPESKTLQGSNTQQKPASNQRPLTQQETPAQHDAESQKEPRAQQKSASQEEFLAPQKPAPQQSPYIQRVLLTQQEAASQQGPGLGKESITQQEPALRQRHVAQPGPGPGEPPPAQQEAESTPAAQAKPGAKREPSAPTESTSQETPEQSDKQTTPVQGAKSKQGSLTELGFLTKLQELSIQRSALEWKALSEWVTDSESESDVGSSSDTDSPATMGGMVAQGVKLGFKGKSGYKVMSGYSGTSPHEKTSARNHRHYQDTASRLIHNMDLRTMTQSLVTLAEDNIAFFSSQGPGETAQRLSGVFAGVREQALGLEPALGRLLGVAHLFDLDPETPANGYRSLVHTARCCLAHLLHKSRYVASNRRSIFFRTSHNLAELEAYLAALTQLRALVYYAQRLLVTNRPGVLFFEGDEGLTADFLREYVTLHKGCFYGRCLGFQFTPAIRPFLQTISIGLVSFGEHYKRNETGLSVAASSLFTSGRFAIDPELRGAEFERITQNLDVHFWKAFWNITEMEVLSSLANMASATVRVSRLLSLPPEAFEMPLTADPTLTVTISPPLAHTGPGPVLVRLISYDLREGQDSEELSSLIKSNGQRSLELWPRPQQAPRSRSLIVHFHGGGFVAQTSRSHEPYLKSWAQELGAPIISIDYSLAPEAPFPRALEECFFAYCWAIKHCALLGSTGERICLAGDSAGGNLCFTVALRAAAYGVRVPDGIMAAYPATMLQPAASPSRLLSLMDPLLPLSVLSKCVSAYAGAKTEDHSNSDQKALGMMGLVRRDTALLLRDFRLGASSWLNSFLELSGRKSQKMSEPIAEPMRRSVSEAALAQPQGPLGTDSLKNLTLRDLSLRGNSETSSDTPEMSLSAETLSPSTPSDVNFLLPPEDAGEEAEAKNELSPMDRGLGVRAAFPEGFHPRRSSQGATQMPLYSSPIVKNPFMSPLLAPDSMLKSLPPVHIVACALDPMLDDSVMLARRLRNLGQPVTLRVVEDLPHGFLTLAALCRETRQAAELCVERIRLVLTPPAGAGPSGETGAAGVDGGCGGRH
Test: Human Hormone-Sensitive Lipase (HSL) enzyme inhibition assay (colorimetric, DMPT substrate)
Type: biochemical
Settings: human full length HSL-His6, 2,3-dimercapto-1-propanol tributyrate substrate, 37° C. 20 minutes, absorbance at 405 nm; read-out: HSL hum IC50
In short: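 Full-length human HSL with C-terminal His6, expressed in baculovirus-infected High 5 cells and Ni-NTA purified, was added (15 ug/ml stock) to 1.5 mM DMPT in 100 mM MOPS pH 7.2, 0.2 mg/ml fatty acid-free BSA containing compound. After 20 min at 37 °C, DTNB with SDS/Triton X-100 was added; A405 read after 15 min at RT.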

| Compound | IC50 [nM] |
| --- | --- |
| CCc1ccc(N2CC[C@]3(CC[C@@](O)(COCCOC)CC3)C2=O)cc1 [Example 229, (5α,8α)-2-(4-Ethyl-phenyl)-8-hydroxy-8-(2-methoxy-ethoxymethyl)-2-aza-spiro[4.5]decan-1-one] | 130 |
| CCc1ccc(N2CC[C@]3(CC[C@](O)(COCC(F)(F)F)CC3)C2=O)cc1 [Example 230, (5α,8β)-2-(4-Ethyl-phenyl)-8-hydroxy-8-(2,2,2-trifluoro-ethoxymethyl)-2-aza-spiro[4.5]decan-1-one] | 400 |
| CCc1ccc(N2CC[C@]3(CC[C@@](O)(COCC(F)(F)F)CC3)C2=O)cc1 [Example 231, (5α,8α)-2-(4-Ethyl-phenyl)-8-hydroxy-8-(2,2,2-trifluoro-ethoxymethyl)-2-aza-spiro[4.5]decan-1-one] | 20 |
| O=C1N(c2ccc(OCC(F)(F)F)cc2)CC[C@]12CC[C@](O)(COCC(F)(F)F)CC2 [Example 232, (5α,8β)-8-Hydroxy-8-(2,2,2-trifluoro-ethoxymethyl)-2-[4-(2,2,2-trifluoro-ethoxy)-phenyl]-2-aza-spiro[4.5]decan-1-one] | 290 |
| O=C1N(c2ccc(OCC(F)(F)F)cc2)CC[C@]12CC[C@@](O)(COCC(F)(F)F)CC2 [Example 233, (5α,8α)-8-Hydroxy-8-(2,2,2-trifluoro-ethoxymethyl)-2-[4-(2,2,2-trifluoro-ethoxy)-phenyl]-2-aza-spiro[4.5]decan-1-one] | 20 |
| CCOC[C@]1(O)CC[C@]2(CCN(c3ccc(OCC(F)(F)F)cc3)C2=O)CC1 [Example 234, (5α,8α)-8-Ethoxymethyl-8-hydroxy-2-[4-(2,2,2-trifluoro-ethoxy)phenyl]-2-aza-spiro[4.5]decan-1-one] | 40 |
| CCCOC[C@]1(O)CC[C@@]2(CCN(c3ccc(OCC(F)(F)F)cc3)C2=O)CC1 [Example 235, (5α,8β)-8-Hydroxy-8-propoxymethyl-2-[4-(2,2,2-trifluoro-ethoxy)-phenyl]-2-aza-spiro[4.5]decan-1-one] | 630 |
| CCCOC[C@]1(O)CC[C@]2(CCN(c3ccc(OCC(F)(F)F)cc3)C2=O)CC1 [Example 236, (5α,8α)-8-Hydroxy-8-propoxymethyl-2-[4-(2,2,2-trifluoro-ethoxy)-phenyl]-2-aza-spiro[4.5]decan-1-one] | 20 |
| CCCCOC[C@]1(O)CC[C@@]2(CCN(c3ccc(OCC(F)(F)F)cc3)C2=O)CC1 [Example 237, (5α,8β)-8-Butoxymethyl-8-hydroxy-2-[4-(2,2,2-trifluoro-ethoxy)-phenyl]-2-aza-spiro[4.5]decan-1-one] | 270 |
| CCCCOC[C@]1(O)CC[C@]2(CCN(c3ccc(OCC(F)(F)F)cc3)C2=O)CC1 [Example 238, (5α,8α)-8-Butoxymethyl-8-hydroxy-2-[4-(2,2,2-trifluoro-ethoxy)-phenyl]-2-aza-spiro[4.5]decan-1-one] | 20 |
| O=C1N(c2ccc(OCC(F)(F)F)cc2)CC[C@]12CC[C@](O)(COc1ccccc1)CC2 [Example 239, (5α,8β)-8-Hydroxy-8-phenoxymethyl-2-[4-(2,2,2-trifluoro-ethoxy)-phenyl]-2-aza-spiro[4.5]decan-1-one] | 140 |
| O=C1N(c2ccc(OCC(F)(F)F)cc2)CC[C@]12CC[C@@](O)(COc1ccccc1)CC2 [Example 240, (5α,8α)-8-Hydroxy-8-phenoxymethyl-2-[4-(2,2,2-trifluoro-ethoxy)-phenyl]-2-aza-spiro[4.5]decan-1-one] | 20 |
| O=C1N(c2ccc(OCC(F)(F)F)cc2)CC[C@]12CC[C@](O)(COCc1ccccc1)CC2 [Example 241, (5α,8β)-8-Benzyloxymethyl-8-hydroxy-2-[4-(2,2,2-trifluoro-ethoxy)-phenyl]-2-aza-spiro[4.5]decan-1-one] | 90 |
| O=C1N(c2ccc(OCC(F)(F)F)cc2)CC[C@]12CC[C@@](O)(COCc1ccccc1)CC2 [Example 242, (5α,8α)-8-Benzyloxymethyl-8-hydroxy-2-[4-(2,2,2-trifluoro-ethoxy)-phenyl]-2-aza-spiro[4.5]decan-1-one] | 10 |
| O=C1N(c2ccc(OCC(F)(F)F)cc2)CC[C@]12CC[C@](O)(COCC(F)F)CC2 [Example 243, (5α,8β)-8-(2,2-Difluoro-ethoxymethyl)-8-hydroxy-2-[4-(2,2,2-trifluoro-ethoxy)-phenyl]-2-aza-spiro[4.5]decan-1-one] | 300 |
| O=C1N(c2ccc(OCC(F)(F)F)cc2)CC[C@]12CC[C@@](O)(COCC(F)F)CC2 [Example 244, (5α,8α)-8-(2,2-Difluoro-ethoxymethyl)-8-hydroxy-2-[4-(2,2,2-trifluoro-ethoxy)-phenyl]-2-aza-spiro[4.5]decan-1-one] | 30 |
| CC(C)COC[C@]1(O)CC[C@@]2(CCN(c3ccc(OCC(F)(F)F)cc3)C2=O)CC1 [Example 245, (5α,8β)-8-Hydroxy-8-isobutoxymethyl-2-[4-(2,2,2-trifluoro-ethoxy)-phenyl]-2-aza-spiro[4.5]decan-1-one] | 280 |
| CC(C)COC[C@]1(O)CC[C@]2(CCN(c3ccc(OCC(F)(F)F)cc3)C2=O)CC1 [Example 246, (5α,8α)-8-Hydroxy-8-isobutoxymethyl-2-[4-(2,2,2-trifluoro-ethoxy)-phenyl]-2-aza-spiro[4.5]decan-1-one] | 640 |
| CCOC[C@]1(O)CC[C@]2(CCN(c3ccc(OCC(F)(F)F)nc3)C2=O)CC1 [Example 247, (5α,8α)-8-Ethoxymethyl-8-hydroxy-2-[6-(2,2,2-trifluoro-ethoxy)-pyridin-3-yl]-2-aza-spiro[4.5]decan-1-one] | 70 |
| CCOC[C@]1(O)CC[C@@]2(CCN(c3ccc(O[C@@H](C)C(F)(F)F)nc3)C2=O)CC1 [Example 248, (5α,8β)-8-Ethoxymethyl-8-hydroxy-2-[6-((S)-2,2,2-trifluoro-1-methyl-ethoxy)-pyridin-3-yl]-2-aza-spiro[4.5]decan-1-one] | 340 |
| CCOC[C@]1(O)CC[C@]2(CCN(c3ccc(O[C@@H](C)C(F)(F)F)nc3)C2=O)CC1 [Example 249, (5α,8α)-8-Ethoxymethyl-8-hydroxy-2-[6-((S)-2,2,2-trifluoro-1-methyl-ethoxy)-pyridin-3-yl]-2-aza-spiro[4.5]decan-1-one] | 20 |
| CCOC[C@]1(O)CC[C@@]2(CCN(c3ccc(O[C@@H](C)C(F)(F)F)cc3)C2=O)CC1 [Example 250, (5α,8β)-8-Ethoxymethyl-8-hydroxy-2-[4-((S)-2,2,2-trifluoro-1-methyl-ethoxy)-phenyl]-2-aza-spiro[4.5]decan-1-one] | 600 |
| CCOC[C@]1(O)CC[C@]2(CCN(c3ccc(O[C@@H](C)C(F)(F)F)cc3)C2=O)CC1 [Example 251, (5α,8α)-8-Ethoxymethyl-8-hydroxy-2-[4-((S)-2,2,2-trifluoro-1-methyl-ethoxy)-phenyl]-2-aza-spiro[4.5]decan-1-one] | 10 |
| CCOC[C@]1(O)CC[C@@]2(CCN(c3ccc(O[C@H](C)C(F)(F)F)cc3)C2=O)CC1 [Example 252, (5α,8β)-8-Ethoxymethyl-8-hydroxy-2-[4-((R)-2,2,2-trifluoro-1-methyl-ethoxy)-phenyl]-2-aza-spiro[4.5]decan-1-one] | 230 |
| CCOC[C@]1(O)CC[C@]2(CCN(c3ccc(O[C@H](C)C(F)(F)F)cc3)C2=O)CC1 [Example 253, (5α,8α)-8-Ethoxymethyl-8-hydroxy-2-[4-((R)-2,2,2-trifluoro-1-methyl-ethoxy)-phenyl]-2-aza-spiro[4.5]decan-1-one] | 20 |
| O=C1N(c2ccc(OCC(F)(F)F)cc2)CC[C@]12CC[C@](O)(COCC1CCC1)CC2 [Example 254, (5α,8β)-8-[(Cyclobutylmethoxy)methyl]-8-hydroxy-2-[4-(2,2,2-trifluoro-ethoxy)-phenyl]-2-aza-spiro[4.5]decan-1-one] | 410 |
| O=C1N(c2ccc(OCC(F)(F)F)cc2)CC[C@]12CC[C@@](O)(COCC1CCC1)CC2 [Example 255, (5α,8α)-8-[(Cyclobutylmethoxy)methyl]-8-hydroxy-2-[4-(2,2,2-trifluoro-ethoxy)-phenyl]-2-aza-spiro[4.5]decan-1-one] | 10 |
